Test [1] addresses human IL-17A / human IL-17RA (Homo sapiens (Human), UniProt Q16552). Put plainly: Human IL-17A biochemical assay (HTRF, blocking of IL-17A binding to IL-17RA). The settings on record: 0.4 nM IL-17A, 0.3 nM IL-17RA, max compound concentration 10 uM. The method in brief: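 Inhibition of IL-17A binding to IL-17RA is measured by HTRF using 0.4 nM IL-17A, 0.3 nM IL-17RA and a 3 h compound pre-incubation at room temperature, pH 7.5. IC50 values come from four-parameter logistic fitting.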
On the technique in general: In TR-FRET formats the signal depends on donor and acceptor labels being close together.

In test [2] the test system is IL-17-induced GROα secretion from HT-29 cells. In words: GROα release assay in human colorectal adenocarcinoma epithelial cell (HT-29, ELISA). The settings on record: Homo sapiens, HT-29, 48 h, 10 ng/mL IL-17A, highest concentration 10 μM, read-out: Cellular assay HT29 cell/CXCL1 IC50. The format is cell-based. Summed up: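 HT-29 cells were exposed 48 h at 37°C to IL-17A (final 10 ng/mL) preincubated 15 min with compound (4-fold dilutions, top 10 μM). Secreted GROα was quantified by ELISA against a standard curve, and IC50 obtained by four-parameter fitting.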
A general note: An ELISA detects its analyte on a solid surface through an enzyme-linked reagent.

Chain of human IL-17A / human IL-17RA (Q16552 24-155): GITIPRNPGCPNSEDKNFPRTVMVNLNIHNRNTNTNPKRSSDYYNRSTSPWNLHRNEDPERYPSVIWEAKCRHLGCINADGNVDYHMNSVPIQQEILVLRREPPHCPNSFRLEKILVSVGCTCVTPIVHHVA

With `CC(C)[C@@H]1CN(C2(C(=O)NCc3ccccn3)Cc3ccc(NC(=O)[C@@H](NC(=O)c4ccnn4C)C4CCCCC4)cc3C2)C(=O)N1` (stereo partly drawn) [Example 163, N-((1S)-1-cyclohexyl-2-((2-((R)-4-isopropyl-2-oxoimidazolidin-1-yl)-2-((pyridin-2-ylmethyl)carbamoyl)-2,3-dihydro-1H-inden-5-yl)amino)-2-oxoethyl)-1-methyl-1H-pyrazole-5-carboxamide], the figures for the IC50 in test [1] and in test [2] were 19 nM and 38.8 nM, respectively.
With `CC[C@H]1CC[C@H]([C@H](NC(=O)c2ccnn2C)C(=O)Nc2ccc3c(c2)CC(COC)(N2CC4(CC4)CNC2=O)C3)CC1` (stereo partly drawn) [Example 165, N-((1S)-1-((1r,4S)-4-ethylcyclohexyl)-2-((2-(methoxymethyl)-2-(6-oxo-5,7-diazaspiro[2.5]octan-5-yl)-2,3-dihydro-1H-inden-5-yl)amino)-2-oxoethyl)-1-methyl-1H-pyrazole-5-carboxamide], the IC50 in test [1] amounted to 173 nM; in test [2], 322 nM.
The matching figures for `CNC(=O)C1(N2CC3(CC3)CNC2=O)Cc2ccc(NC(=O)[C@@H](NC(=O)c3ccc(C#N)n3C)C3CCCCC3)cc2C1` (stereo partly drawn) [Example 131, 5-cyano-N-((1S)-1-cyclohexyl-2-((2-(methylcarbamoyl)-2-(6-oxo-5,7-diazaspiro[2.5]octan-5-yl)-2,3-dihydro-1H-inden-5-yl)amino)-2-oxoethyl)-1-methyl-1H-pyrrole-2-carboxamide]: 5.5 nM and 14.9 nM.
For the compound `CNC(=O)C1(N2CC3(CC3)CNC2=O)Cc2ccc(NC(=O)[C@@H](NC(=O)c3cccc(C#N)c3)C3CCCCC3)cc2C1` (stereo partly drawn) [Example 153, 5-((S)-2-(3-cyanobenzamido)-2-cyclohexylacetamido)-N-methyl-2-(6-oxo-5,7-diazaspiro[2.5]octan-5-yl)-2,3-dihydro-1H-indene-2-carboxamide], the IC50 came out at 95 nM in test [1] and 258 nM in test [2].
Take `Cc1nonc1C(=O)N[C@H](C(=O)Nc1ccc2c(c1)CC(C(=O)Nc1ccccc1C(F)(F)F)(N1C[C@@H](C(C)C)NC1=O)C2)C(C1CC1)C1CC1` (stereo partly drawn) [Example 272, N-((2S)-1,1-dicyclopropyl-3-((2-((R)-4-isopropyl-2-oxoimidazolidin-1-yl)-2-((2-(trifluoromethyl)phenyl)carbamoyl)-2,3-dihydro-1H-inden-5-yl)amino)-3-oxopropan-2-yl)-4-methyl-1,2,5-oxadiazole-3-carboxamide]: the values for the IC50 in test [1] and in test [2] were 295 nM and 650 nM, respectively.
As for `Cc1nonc1C(=O)N[C@H](C(=O)Nc1ccc2c(c1)CC(N1C[C@@H](C(F)(F)F)NC1=O)C2)C1CCC(F)(F)CC1` (stereo partly drawn) [Example 178, N-((1S)-1-(4,4-difluorocyclohexyl)-2-oxo-2-((2-((S)-2-oxo-4-(trifluoromethyl)imidazolidin-1-yl)-2,3-dihydro-1H-inden-5-yl)amino)ethyl)-4-methyl-1,2,5-oxadiazole-3-carboxamide], the IC50 in test [1] worked out at 3650 nM; in test [2] it was 2210 nM.
The matching figures for `CC(C)[C@@H]1CC(C2Cc3ccc(NC(=O)[C@@H](NC(=O)c4ccnn4C)C4CCCCC4)cc3C2)C(=O)N1` (stereo partly drawn) [Example 209, N-((1S)-1-cyclohexyl-2-((2-((5S)-5-isopropyl-2-oxopyrrolidin-3-yl)-2,3-dihydro-1H-inden-5-yl)amino)-2-oxoethyl)-1-methyl-1H-pyrazole-5-carboxamide]: 1060 nM and 2180 nM.
In the case of `CCC1(C)CNC(=O)N(C2(C(=O)NC)Cc3ccc(NC(=O)[C@@H](NC(=O)c4ccnn4C)C4CCCCC4)cc3C2)C1` (stereo partly drawn) [Example 105, N-((1S)-1-cyclohexyl-2-((2-(5-ethyl-5-methyl-2-oxotetrahydropyrimidin-1(2H)-yl)-2-(methylcarbamoyl)-2,3-dihydro-1H-inden-5-yl)amino)-2-oxoethyl)-1-methyl-1H-pyrazole-5-carboxamide], the IC50 amounted to 15 nM in test [1] and 55.5 nM in test [2].
The matching figures for `Cc1nonc1C(=O)N[C@H](C(=O)Nc1ccc2c(c1)OC(CN1C[C@@H](C(F)(F)F)NC1=O)C2)C1CCC(F)(F)CC1` (stereo partly drawn) [Example 257, N-((1S)-1-(4,4-difluorocyclohexyl)-2-oxo-2-((2-(((S)-2-oxo-4-(trifluoromethyl)imidazolidin-1-yl)methyl)-2,3-dihydrobenzofuran-6-yl)amino)ethyl)-4-methyl-1,2,5-oxadiazole-3-carboxamide]: 938 nM and 2500 nM.
The matching figures for `COCC1(N2C[C@@H](C(C)C)NC2=O)Cc2ccc(NC(=O)[C@@H](NC(=O)c3ccnn3C)C(C3CC3)C3CC3)cc2C1` (stereo partly drawn) [Example 245, N-((2S)-1,1-dicyclopropyl-3-((2-((R)-4-isopropyl-2-oxoimidazolidin-1-yl)-2-(methoxymethyl)-2,3-dihydro-1H-inden-5-yl)amino)-3-oxopropan-2-yl)-1-methyl-1H-pyrazole-5-carboxamide]: 52.4 nM and 92.5 nM.
Turning to `CC(C)[C@@H]1CN(C2(C(=O)Nc3ccccc3)Cc3ccc(NC(=O)[C@@H](NC(=O)c4ccnn4C)C4CCCCC4)cc3C2)C(=O)N1` (stereo partly drawn) [Example 151, N-((1S)-1-cyclohexyl-2-((2-((R)-4-isopropyl-2-oxoimidazolidin-1-yl)-2-(phenylcarbamoyl)-2,3-dihydro-1H-inden-5-yl)amino)-2-oxoethyl)-1-methyl-1H-pyrazole-5-carboxamide], the IC50 in test [1] came to 31 nM; in test [2], 99.6 nM.
The matching figures for `Cn1nccc1C(=O)N[C@H](C(=O)Nc1ccc2oc(CN3C[C@@H](C(F)(F)F)NC3=O)cc2c1)C1CCCCC1` [Example 240, N-((S)-1-cyclohexyl-2-oxo-2-((2-(((S)-2-oxo-4-(trifluoromethyl)imidazolidin-1-yl)methyl)benzofuran-5-yl)amino)ethyl)-1-methyl-1H-pyrazole-5-carboxamide]: 200 nM and 264 nM.
The matching figures for `CNC(=O)C1(N2CC3(CC3)CNC2=O)Cc2ccc(NC(=O)C(NC(=O)c3ccnn3C)C3CCC(C(F)(F)F)CC3)cc2C1` (centres unmarked) [Example 164, 1-methyl-N-(2-((2-(methylcarbamoyl)-2-(6-oxo-5,7-diazaspiro[2.5]octan-5-yl)-2,3-dihydro-1H-inden-5-yl)amino)-2-oxo-1-(4-(trifluoromethyl)cyclohexyl)ethyl)-1H-pyrazole-5-carboxamide]: 35.2 nM and 112 nM.
On to `CNC(=O)C1(N2CCNC2=O)Cc2ccc(NC(=O)[C@@H](NC(=O)c3ccnn3C)C3CCCCC3)cc2C1` (stereo partly drawn) [Example 13, N-((1S)-1-cyclohexyl-2-((2-(methylcarbamoyl)-2-(2-oxoimidazolidin-1-yl)-2,3-dihydro-1H-inden-5-yl)amino)-2-oxoethyl)-1-methyl-1H-pyrazole-5-carboxamide], for which the IC50 came to 1800 nM in test [1] and 1500 nM in test [2].
Take `CC(C)[C@@H]1CN(C2(C(=O)NCC(F)(F)F)Cc3ccc(NC(=O)[C@@H](NC(=O)c4ccnn4C)C4CCCCC4)cc3C2)C(=O)N1` (stereo partly drawn) [Example 68, N-((1S)-1-cyclohexyl-2-((2-((R)-4-isopropyl-2-oxoimidazolidin-1-yl)-2-((2,2,2-trifluoroethyl)carbamoyl)-2,3-dihydro-1H-inden-5-yl)amino)-2-oxoethyl)-1-methyl-1H-pyrazole-5-carboxamide]: the results for the IC50 in test [1] and in test [2] were 30 nM and 37 nM, respectively.
In the case of `Cc1nonc1C(=O)N[C@H](C(=O)Nc1ccc2c(c1)CC(C(=O)NC1CCCC1)(N1C[C@@H](C(C)C)NC1=O)C2)C(C1CC1)C1CC1` (stereo partly drawn) [Example 282, N-((2S)-1-((2-(cyclopentylcarbamoyl)-2-((R)-4-isopropyl-2-oxoimidazolidin-1-yl)-2,3-dihydro-1H-inden-5-yl)amino)-3,3-dicyclopropyl-1-oxopropan-2-yl)-4-methyl-1,2,5-oxadiazole-3-carboxamide], the IC50 in test [1] is 33.7 nM; in test [2] it was 95.3 nM.
On to `CNC(=O)C1(N2CC3(CC3)CNC2=O)Cc2ccc(NC(=O)C(NC(=O)c3nonc3C)C3CCC(C(F)(F)F)CC3)cc2C1` (centres unmarked) [Example 181, 4-methyl-N-(2-((2-(methylcarbamoyl)-2-(6-oxo-5,7-diazaspiro[2.5]octan-5-yl)-2,3-dihydro-1H-inden-5-yl)amino)-2-oxo-1-(4-(trifluoromethyl)cyclohexyl)ethyl)-1,2,5-oxadiazole-3-carboxamide], for which the results for the IC50 in test [1] and in test [2] were 193 nM and 154 nM, respectively.
For the compound `CC[C@H]1CC[C@H]([C@H](NC(=O)c2ccnn2C)C(=O)Nc2ccc3c(c2)CC(C(=O)NC)(N2CC4(CC4)CNC2=O)C3)CC1` (stereo partly drawn) [Example 171, N-((1S)-1-((1r,4S)-4-ethylcyclohexyl)-2-((2-(methylcarbamoyl)-2-(6-oxo-5,7-diazaspiro[2.5]octan-5-yl)-2,3-dihydro-1H-inden-5-yl)amino)-2-oxoethyl)-1-methyl-1H-pyrazole-5-carboxamide], the IC50 in test [1] worked out at 7 nM; in test [2], 9.7 nM.
With `CNC(=O)C1(N2C[C@@H](C(C)C)NC2=O)Cc2ccc(NC(=O)C(NC(=O)c3ccnn3C)C3CCc4ccccc43)cc2C1` (stereo partly drawn) [Example 97, N-(1-(2,3-dihydro-1H-inden-1-yl)-2-((2-((R)-4-isopropyl-2-oxoimidazolidin-1-yl)-2-(methylcarbamoyl)-2,3-dihydro-1H-inden-5-yl)amino)-2-oxoethyl)-1-methyl-1H-pyrazole-5-carboxamide], the IC50 in test [1] amounted to 535 nM; in test [2] it was 1860 nM.

The values above are taken from US20250154138A1, “Small Molecule IL-17A Modulators” (BeiGene, Ltd., priority 2022, published 2025).
